Assay results: ChEMBL document CHEMBL4028837, “Acetanilide and bromoacetyl-lysine derivatives as activators for human histone deacetylase 8” (Bioorg Med Chem Lett, 2017)

Columns and labels:
[1] = target: T1, Histone deacetylase 8 (Homo sapiens) (UniProt Q9BY41); assay: Activation of human HDAC8 deacetylation activity at 50 uM using AMC less CH3CONH-FG-(Nepsilon-acetyl-lysine)-FSW-CONH2 as substrate measured after 10 mins by reverse phase HPLC method relative to control
T1 sequence (whole entry): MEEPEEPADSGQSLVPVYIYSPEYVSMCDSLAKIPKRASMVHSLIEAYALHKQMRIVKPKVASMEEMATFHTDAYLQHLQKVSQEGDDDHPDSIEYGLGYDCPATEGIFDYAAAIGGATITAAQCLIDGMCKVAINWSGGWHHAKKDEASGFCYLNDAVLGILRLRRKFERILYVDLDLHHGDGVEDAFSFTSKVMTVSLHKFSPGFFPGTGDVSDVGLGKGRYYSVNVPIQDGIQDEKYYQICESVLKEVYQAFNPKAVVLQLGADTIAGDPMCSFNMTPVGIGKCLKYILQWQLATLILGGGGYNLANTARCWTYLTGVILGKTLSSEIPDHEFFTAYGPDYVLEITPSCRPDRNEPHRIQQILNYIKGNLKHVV

Homo sapiens [2] = organism: Homo sapiens; assay: Activation of HDAC deacetylation activity in human HeLa nuclear extract at 50 uM using AMC-Fluor-de-Lys-HDAC8 as substrate measured after 5 mins by reverse phase HPLC method relative to control
[3] = target: T1, Histone deacetylase 8 (Homo sapiens); assay: Activation of human HDAC8 deacetylation activity at 50 uM using AMC-Fluor-de-Lys-HDAC8 as substrate measured after 10 mins by reverse phase HPLC method relative to control
Homo sapiens [4] = organism: Homo sapiens; assay: Activation of HDAC deacetylation activity in human HeLa nuclear extract at 50 uM using AMC less CH3CONH-RH-(Nepsilon-acetyl-lysine)-(Nepsilon-acetyl-lysine)-CONH2 as substrate measured after 10 mins by reverse phase HPLC method relative to control
[5] = target: T1, Histone deacetylase 8 (Homo sapiens); assay: Activation of human HDAC8 deacetylation activity assessed as reduction in substrate Km at 50 uM using AMC less CH3CONH-FG-(Nepsilon-acetyl-lysine)-FSW-CONH2 as substrate measured after 1.5 mins by reverse phase HPLC method relative to control
[6] = target: T1, Histone deacetylase 8 (Homo sapiens); assay: Activation of human HDAC8 deacetylation activity assessed as reduction in substrate Kcat at 50 uM using AMC-Fluor-de-Lys-HDAC8 as substrate measured after 1.5 mins by reverse phase HPLC method relative to control
[7] = target: T1, Histone deacetylase 8 (Homo sapiens); assay: Activation of human HDAC8 deacetylation activity assessed as decrease in substrate Kcat at 50 uM using AMC less CH3CONH-FG-(Nepsilon-acetyl-lysine)-FSW-CONH2 as substrate measured after 1.5 mins by reverse phase HPLC method relative to control; parameters: scale not given: the % may be the effect or the level left
[8] = target: T1, Histone deacetylase 8 (Homo sapiens); assay: Activation of human HDAC8 deacetylation activity assessed as ratio of Kcat to Km for substrate at 50 uM using AMC less CH3CONH-FG-(Nepsilon-acetyl-lysine)-FSW-CONH2 as substrate measured after 1.5 mins by reverse phase HPLC method relative to control
[9] = target: T1, Histone deacetylase 8 (Homo sapiens); assay: Activation of human HDAC8 deacetylation activity assessed as ratio of Kcat to Km for substrate at 50 uM using AMC-Fluor-de-Lys-HDAC8 as substrate measured after 1.5 mins by reverse phase HPLC method relative to control
[10] = target: T1, Histone deacetylase 8 (Homo sapiens); assay: Activation of human HDAC8 deacetylation activity assessed as reduction in substrate Km at 50 uM using AMC-Fluor-de-Lys-HDAC8 as substrate measured after 1.5 mins by reverse phase HPLC method relative to control

Structure (SMILES)	fold change (FC) [1]	fold change (FC) (Homo sapiens [2])	fold change (FC) [3]	fold change (FC) (Homo sapiens [4])	fold change (FC) [5]	fold change (FC) [6]	Activity [7]	fold change (FC) [8]	fold change (FC) [9]	fold change (FC) [10]
O=C(NC(=S)Nc1ccccc1)c1ccccc1	0.5	0.69	2.2	0.58	–	–	–	–	–	–
CC(=O)Nc1cccc(C(F)(F)F)c1	1.3	0.89	1.7	0.81	–	–	–	–	–	–
O=C(Nc1ccc(C(F)(F)F)cc1)C(F)(F)F	1.4	0.93	1.1	0.64	–	–	–	–	–	–
CC(=O)Nc1ccc(C(F)(F)F)cc1	1.4	0.93	1.7	0.83	–	–	–	–	–	–

More lines, now with the values ahead:

fold change (FC) [1]	fold change (FC) (Homo sapiens [2])	fold change (FC) [3]	fold change (FC) (Homo sapiens [4])	fold change (FC) [5]	fold change (FC) [6]	Activity [7]	fold change (FC) [8]	fold change (FC) [9]	fold change (FC) [10]	Structure (SMILES)
2.7	0.96	1.7	0.54	–	–	–	–	–	–	O=C(Nc1cccc(C(F)(F)F)c1)C(F)(F)F
1.5	0.98	1.2	1.45	–	–	–	–	–	–	CC(=O)Nc1ccccc1C(F)(F)F
1.2	0.87	1.4	1.22	–	–	–	–	–	–	O=C(Nc1ccccc1C(F)(F)F)C(F)(F)F
5.6	1.09	2.8	1.22	3.6	13	< 40%	2.6	3.7	3.5	CC(C)(C)OC(=O)N[C@@H](CCCCNC(=O)CBr)C(=O)Nc1ccccc1
